Results reported in publication PMC9220351, “Evaluation of a Conformationally Constrained Indole Carboxamide as a Potential Efflux Pump Inhibitor in Pseudomonas aeruginosa” (Antibiotics, 2022).
Converted amounts (≈) assume the structure as drawn.

Experiments:
[1] = system: P. aeruginosa K1455 (mexAB-oprM overexpressed); experiment: microbe, parasite or virus in culture; type: cell-based, Pseudomonas aeruginosa; conditions: Pseudomonas aeruginosa, read-out: MICs K1455 (↑mexAB-oprM)
Source text: (§1) P. aeruginosa ATCC 27853 was obtained from the American Type Culture Collection (ATCC; Manassas, VA, USA). P. aeruginosa multidrug-resistant isolates were obtained from the CDC and FDA Antibiotic Resistance Isolate Bank (Atlanta, GA, USA). P. aeruginosa DA7232 (gyrA-T83I, parC-S80L) was a kind gift from Prof. Dan I. Andersson, Uppsala University, Uppsala, Sweden, and has been characterized elsewhere. P. aeruginosa strains K767 (WT), K1455 (mexAB-oprM overexpressed), K2415 (mexXY-oprM overexpressed), and K3698 (oprM∆) were obtained from Prof. Keith Poole, Queen’s University, Kingston, Ontario, Canada and have been characterized elsewhere. Bacterial cells were grown in cation-adjusted Mueller Hinton (CAMH) media, brain heart infusion broth (BHI), or tryptic soy agar (TSA) plates were all obtained from Becton, Dickinson, and Company (BD; Franklin Lakes, NJ, USA). Aztreonam, ceftazidime, moxifloxacin, levofloxacin, minocycline, tigecycline, chloramphenicol, nitrocefin, and imipenem were purchased from TOKU-E (Bellingham, WA, USA). Azithromycin was purchased from Tokyo Chemical Industry (Portland, OR, USA). Cotrimoxazole was purchased from Toronto Research Chemicals (Toronto, ON, Canada). Doxycycline and polymyxin B were purchased from Sigma-Aldrich (St. Louis, MO, USA). Ethidium bromide (EtBr) and glucose were purchased from VWR (Radnor, PA, USA). MC-04,124 and TXA01182 were synthesized at TAXIS Pharmaceuticals. Carbonyl cyanide 3-chlorophenylhydrazone (CCCP) was purchased from Enzo Life Sciences (Farmingdale, NY, USA). DiOC2 (3) and propidium iodide were obtained from Thermo Fisher Scientific (Waltham, MA, USA).
(§2) MIC assays were performed as described previously.

[2] = system: P. aeruginosa K2415 (mexXY-oprM overexpressed); experiment: MIC / potentiation assay, strain K2415; type: cell-based, Pseudomonas aeruginosa; conditions: Pseudomonas aeruginosa, read-out: MICs K2415 (↑mexXY-oprM)
Source text: as §1, §2

[3] = system: P. aeruginosa K3698 (∆oprM); experiment: MIC / potentiation assay, strain K3698; type: cell-based, Pseudomonas aeruginosa; conditions: Pseudomonas aeruginosa, read-out: MICs K3698 (∆oprM)
Source text: as §1, with “Aztreonam, ceftazidime, moxifloxacin, levofloxacin, minocycline, tigecycline, chloramphenicol, nitrocefin, and imipenem were purchased from TOKU-E (Bellingham, WA, USA).” left out, “Cotrimoxazole was purchased from Toronto Research Chemicals (Toronto, ON, Canada). Doxycycline and polymyxin B were purchased from Sigma-Aldrich (St. Louis, MO, USA).” left out
as §2

[4] = system: P. aeruginosa ATCC 27853 efflux of EtBr; experiment: Ethidium bromide (EtBr) efflux inhibition assay; type: cell-based, Pseudomonas aeruginosa; conditions: fluorescence, after glucose activation
Protocol: The ability of TXA09155 to inhibit efflux in P. aeruginosa was studied using two quantitative assays to establish efflux inhibition as the MOA. In the first assay, the efflux of ethidium bromide (EtBr) by P. aeruginosa cells is studied in the presence of different concentrations of TXA09155. Wild-type P. aeruginosa ATCC 27853 cells were incubated with EtBr to allow for the intracellular accumulation and were treated with CCCP to inhibit active efflux. […] Following activation by the addition of glucose, the efflux of EtBr can be followed in real time as a decrease in fluorescence based on the concentration of TXA09155.
Efflux of EtBr from P. aeruginosa in the presence of TXA09155 was carried out as described previously.

P. aeruginosa DA7232 = experiment: Levofloxacin accumulation assay; type: cell-based, Pseudomonas aeruginosa; conditions: levofloxacin 64 μg/mL; compound 1/2, 1/4th, 1/8th MIC
Protocol: Similar assays have been described elsewhere with the same purpose.
The treated bacterial culture samples were incubated on ice for 15 min, centrifuged, washed with 1X PBS (pH 7.4), and then resuspended in 1 mL of glycine-HCl buffer (pH 3.0) overnight, followed by centrifugation. The fluorescence of 100 μL of supernatant was read at 490 nm following a 355 nm excitation in a SpectraMax iD5 spectrophotometer (Molecular Devices, San Jose, CA, USA).

P. aeruginosa ATCC 27853 = experiment: Time-kill studies; type: cell-based, Pseudomonas aeruginosa; conditions: highest concentration tested
Protocol: Time-kill studies were carried out as described previously with the following changes.

Solubility at pH 7.4 = type: physicochemical; conditions: pH 7.4, aqueous buffer
[5] = Metabolic stability in human liver microsomes; type: in vitro ADME
Protocol: (§3) The metabolic stability of TXA09155 was determined in human, mouse, and rat liver microsomes by Eurofins (St. Charles, MO, USA) using the substrate depletion method (in vitro half-life (t1/2) method). Quantification was performed by LC/MS/MS. In this assay, depletion of the parent compound is measured over time to determine the compound’s in vitro t1/2 and hepatic extraction ratios (ER). This is used to predict metabolic clearance. […] This assay utilizes electrophysiology measurements on the electric current passing through the hERG channel heterologously expressed in a stable CHO cell line. Channels are open by a hERG-specific voltage protocol, and the compound effects are directly characterized by their block of the hERG current. The assay is performed on an automated platform, Q-Patch.

[6] = Metabolic stability in rat liver microsomes; type: in vitro ADME
Protocol: as §3

CYP3A4 = CYP3A4 (Homo sapiens, UniProt P08684); experiment: CYP inhibition; type: in vitro ADME; conditions: read-out: CYP Inhibition IC50, CYP 3A4
Chain of CYP3A4 (P08684 whole entry): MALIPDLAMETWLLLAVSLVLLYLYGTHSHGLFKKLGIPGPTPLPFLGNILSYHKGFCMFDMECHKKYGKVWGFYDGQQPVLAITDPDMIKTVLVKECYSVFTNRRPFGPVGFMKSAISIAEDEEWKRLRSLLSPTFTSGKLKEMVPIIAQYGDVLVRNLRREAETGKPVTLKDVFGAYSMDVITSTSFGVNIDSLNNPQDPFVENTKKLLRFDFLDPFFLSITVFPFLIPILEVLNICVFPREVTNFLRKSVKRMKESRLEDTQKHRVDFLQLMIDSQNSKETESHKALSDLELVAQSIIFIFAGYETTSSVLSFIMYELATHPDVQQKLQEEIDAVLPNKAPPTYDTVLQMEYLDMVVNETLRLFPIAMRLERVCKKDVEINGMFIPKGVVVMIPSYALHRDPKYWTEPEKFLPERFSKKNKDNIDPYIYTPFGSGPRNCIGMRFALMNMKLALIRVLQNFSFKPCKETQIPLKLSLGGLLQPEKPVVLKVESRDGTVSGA

[7] = CellTiterGlo cytotoxicity assay; type: cell-based; conditions: human, 293T cells
human RBCs = experiment: Hemolytic activity; type: cell-based; conditions: 12.5 to 100 µM
hERG channel = hERG channel (Homo sapiens, UniProt Q12809); experiment: hERG patch clamp assay (Q-Patch, CHO cell line); type: cell-based
Chain of hERG channel (Q12809 whole entry): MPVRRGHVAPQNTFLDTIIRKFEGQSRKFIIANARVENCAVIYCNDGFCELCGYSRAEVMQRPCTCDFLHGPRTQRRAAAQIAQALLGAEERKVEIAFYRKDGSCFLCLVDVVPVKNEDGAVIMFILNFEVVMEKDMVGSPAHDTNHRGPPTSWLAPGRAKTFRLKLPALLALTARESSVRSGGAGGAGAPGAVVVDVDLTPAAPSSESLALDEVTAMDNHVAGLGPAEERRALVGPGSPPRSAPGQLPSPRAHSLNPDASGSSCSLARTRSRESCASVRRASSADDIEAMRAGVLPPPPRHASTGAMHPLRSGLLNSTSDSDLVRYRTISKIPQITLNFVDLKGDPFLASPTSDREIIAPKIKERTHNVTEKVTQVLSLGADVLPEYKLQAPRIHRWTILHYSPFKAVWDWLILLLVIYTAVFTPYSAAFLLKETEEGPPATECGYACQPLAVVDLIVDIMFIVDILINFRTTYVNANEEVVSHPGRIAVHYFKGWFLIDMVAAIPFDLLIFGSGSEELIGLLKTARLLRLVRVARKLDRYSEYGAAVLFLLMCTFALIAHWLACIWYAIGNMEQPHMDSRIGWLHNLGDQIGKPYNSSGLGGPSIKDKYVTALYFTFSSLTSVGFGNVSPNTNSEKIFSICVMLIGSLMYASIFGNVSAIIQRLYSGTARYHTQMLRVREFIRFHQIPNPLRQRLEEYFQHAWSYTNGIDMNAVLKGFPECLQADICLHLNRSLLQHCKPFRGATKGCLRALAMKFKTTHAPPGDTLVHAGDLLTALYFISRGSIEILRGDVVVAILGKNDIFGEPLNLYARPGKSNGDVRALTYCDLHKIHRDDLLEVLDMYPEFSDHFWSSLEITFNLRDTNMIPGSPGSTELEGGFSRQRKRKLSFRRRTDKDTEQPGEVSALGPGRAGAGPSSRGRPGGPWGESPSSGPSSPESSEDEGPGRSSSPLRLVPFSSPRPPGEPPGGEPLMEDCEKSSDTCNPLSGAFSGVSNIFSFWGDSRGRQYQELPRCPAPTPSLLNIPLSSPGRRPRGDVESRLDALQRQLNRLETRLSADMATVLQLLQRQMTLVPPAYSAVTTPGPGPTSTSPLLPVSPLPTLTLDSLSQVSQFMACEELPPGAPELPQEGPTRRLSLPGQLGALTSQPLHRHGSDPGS
Protocol: as §3

Row | Structure (SMILES) | MIC [1] [µg/mL] | MIC [2] [µg/mL] | MIC [3] [µg/mL] | inhibition of EtBr efflux [4] | accumulation of levofloxacin inside P. aeruginosa (P. aeruginosa DA7232) | effect on growth, compound alone (P. aeruginosa ATCC 27853) | solubility (Solubility at pH 7.4) [µM] | HLM and RLM Metabolic Stability (HLM) [5] [%] | HLM and RLM Metabolic Stability (RLM) [6] [%] | IC50 (CYP3A4) [µM] | IC50 [7] [µM] | hemolytic activity (human RBCs) | IC50 (hERG channel) [µM]
1 | C[C@H]1COc2c(N3CCN(C)CC3)c(F)cc3c(=O)c(C(=O)O)cn1c23 [Levofloxacin] | 4 (≈ 11.1 µM) | 4 | 0.031 |  |  |  |  |  |  |  |  |  | 
2 | Cl.NC[C@@H]1CN[C@H](CNC(=O)c2cc3ccc(-c4ccc(F)cc4)cc3[nH]2)C1 [TXA09155, N-(((2S,4R)-4-(aminomethyl)pyrrolidine-2-yl)methyl)-6-(4-fluorophenyl)-1H-indole-2-carboxamide hydrochloride salt] |  |  |  | concentration-dependent inhibition | concentration-dependent manner | did not affect the growth | > 155 | >60 | >60 | 28.5 | > 40 | did not display hemolytic activity | 16
